“Also recorded” adds a separate entry of the source. Marks after values point to notes of the source that are not given here.
Experiments:
[1] = system: Bcl-XL gene; assay: rtPCR gene expression in Sk-Mel-28 cells; assay type: cell-based, human
Description: (§1) We applied rtPCR techniques in order to investigate the effect of our two compounds on the anti-apoptotic Bcl-XL and Bcl-2 genes as well as the proapoptotic Bak and Bad genes (Table 4). […] Therefore, we may presume that the apoptotic mechanism of both compounds against the A375 cells is not mediated by the tested genes or that alterations in their ratio are the underlying mechanism.

[2] = system: Bak gene; assay: rtPCR gene expression in Sk-Mel-28 cells; assay type: cell-based, human
Description: as §1

[3] = system: chorioallantoic membrane; assay: Chorioallantoic membrane (CAM) angiogenesis assay; assay type: in vivo, chicken; conditions: 1 µM in 0.5% DMSO, applied daily for 72 h
Description: The potential effects of compounds 6 and 7 on the angiogenesis process were investigated using the chorioallantoic membrane (CAM) assay which uses fertilized chicken eggs, incubated at 37 °C, under controlled humidity. On the third day of incubation (embryonic day 3 of development, EDD 3), a small opening was made at one end of the eggs and 5–6 mL of albumen was removed, thus facilitating the separation of the chorioallantoic membrane. On EDD 4, a window was cut on the upper side of the egg and subsequently resealed, returning the specimens to the incubator. On EDD 7 (0 h), 10 µL of each test solution was administered inside a plastic ring previously applied on the intensely vascularized surface of the CAM [75, 76]. […] All samples were applied daily in the same volume for 72 h. For each analyzed sample, 5 eggs were used, and all samples were applied in triplicate. Macroscopic evaluation was daily performed in ovo by means of stereomicroscopy (ZEISS SteREO Discovery.V8, Göttingen, Germany) and all images were registered and processed by Axiocam 105 color, AxioVision SE64. Rel. 4.9.1 Software, (ZEISS Göttingen, Germany), ImageJ (ImageJ Version 1.50e, https://imagej.nih.gov/ij/index.html, accessed on 12 May 2021) and GIMP software (GIMP v 2.8, https://www.gimp.org/, accessed on 12 May 2021).

[4] = system: 1BR3 human fibroblasts; assay: MTT cytotoxicity assay for healthy human cells; assay type: cell-based; conditions: 1BR3 healthy cells, 48 h
Description: (§2) The in vitro cytotoxicity was determined by means of (4,5-dimethylthiazol-2-yl)-2,5-diphenyltetrazolium bromide (MTT) method. In brief, HaCaT, 1BR3 cells were seeded in 96-well plates at an initial density of […] and allowed to attach. Next, the old medium was removed and a fresh one was added containing five concentrations (100 µM, 10 µM, 1 µM, 0.1 µM, and 0.01 µM) of the tested compounds 6 and 7 after which cells were incubated for 48 h. The control cells were treated with the same amount of DMSO, the highest concentration of DMSO present in the medium being 0.5%. A volume of […] MTT reagent (5 mg/mL) was added in each well. During a 4 h contact period, the intact mitochondrial reductase converted and precipitated MTT as blue crystals. The precipitated crystals were dissolved in […] of lysis solution provided by the manufacturer (Sigma-Aldrich). Finally, the reduced MTT was spectrophotometrically analyzed at 570 nm, using a microplate reader (xMark Microplate Spectrophotometer, Bio-Rad, Hercules, CA, USA). GI50 was calculated for each healthy cell line.

[5] = system: HaCaT—human keratinocytes; assay: MTT cytotoxicity assay for healthy human cells; assay type: cell-based; conditions: 48 h
Description: as §2

[6] = system: Bcl-2 gene; assay: rtPCR gene expression in Sk-Mel-28 cells; assay type: cell-based, human
[7] = system: RPMI melanoma cells; assay: Cell morphology assessment; assay type: cell-based, human; conditions: 5 μM, 24 h
Description: In order to further investigate the biological effects of these compounds against three human melanoma cell lines, their effect on cell morphology was assessed.
In terms of the RPMI melanoma cell line (Figure 10), a decrease in the number of cells can be observed in direct proportion to the tested concentration; for both compounds, a proapoptotic change occurred in the cellular morphology.

## C[C@H]1[C@@H]2[C@H]3CC[C@@H]4[C@@]5(C)C/C(=C\c6cccnc6)C(=O)C(C)(C)[C@@H]5CC[C@@]4(C)[C@]3(C)CC[C@]23CO[C@@]1(C)[C@@H](C(=O)/C=C/c1cccnc1)C3 [Compound 6, 3-Oxo-2-(3-pyridinylidene)-21-[3-(2E-pyridinyl)-prop-2-en-1-one]-20β,28-epoxy-18α,19βH-ursane]
[1]
  Bcl-XL gene expression, Mean: 1.606
[2]
  Bak gene expression, Mean: 22.826 ***
[3]
  Effect on the normal angiogenic process: only slightly affected angiogenesis
[4]
  GI50: 23.1 µM
[4]; Homo sapiens, Fibroblast
  GI50: > 15 µM
[5]
  GI50: 18.6 µM
[5]; Homo sapiens, HaCaT
  GI50: > 15 µM
[6]
  Bcl-2 gene expression, Mean: 0.200 *
[7]
  Effect on cell morphology: formation of vacuoles within the cell cytoplasm

## COC(=O)[C@]12CC[C@@H](C(=O)/C=C/c3cccnc3)[C@@H]1[C@H]1CC[C@@H]3[C@@]4(C)C/C(=C\c5cccnc5)C(=O)C(C)(C)[C@@H]4CC[C@@]3(C)[C@]1(C)CC2 [Compound 7, methyl 2,30-bis-(3-pyridinylidene)-3,20-dioxo-lup-28-oate]
[1]
  Bcl-XL gene expression, Mean: 3.826
[2]
  Bak gene expression, Mean: 59.543 **
[3]
  Effect on the normal angiogenic process: did not interfere with the normal angiogenic process; also recorded: does not influence the angiogenic process
[4]
  GI50: 20.9 µM
[4]; Homo sapiens, Fibroblast
  GI50: > 15 µM
[5]
  GI50: 15.4 µM
[5]; Homo sapiens, HaCaT
  GI50: > 15 µM
[6]
  Bcl-2 gene expression, Mean: 0.210 *

Source: PMC8509773, “3-Pyridinylidene Derivatives of Chemically Modified Lupane and Ursane Triterpenes as Promising Anticancer Agents by Targeting Apoptosis” (International Journal of Molecular Sciences, 2021)
